What was measured:
mice = settings: cited from earlier work
leukemia cells (MOLT-4) = experiment: MTT cytotoxicity assay, leukemia cells; format: cell-based; set-up: key: —: Not active; =PT: Activity equivalent to Paclitaxel; <PT: Activity less than Paclitaxel; settings: MOLT-4 leukemia cells, 24 to 96 hours, potency over paclitaxel
Protocol: (§1) In vitro cytotoxic activity of novel paclitaxel derivatives was determined by performing the MTT cytotoxicity assay (Mosmann T., J Immunological Methods, 65:55; 1983). Briefly, the cultured tumor cells were separately seeded in a 96-well culture plate and co-incubated with paclitaxel or its derivatives dissolved in methanol, dimethyl formamide, dimethyl sulfoxide or isopropyl alcohol with relevant controls at 37° C. in a CO2 incubator. After 24 to 96 hours, the assay was terminated and percent cyotoxicities calculated.

[1] = system: cervical cancer cells (SiHa); experiment: MTT cytotoxicity assay, cervical cancer cells; format: cell-based; set-up: key: —: Not active; =PT: Activity equivalent to Paclitaxel; <PT: Activity less than Paclitaxel; settings: 24 to 96 hours, potency over paclitaxel
Protocol: as §1

[2] = system: ovarian cancer cells (PA-1); experiment: MTT cytotoxicity assay, ovarian cancer cells; format: cell-based; set-up: key: —: Not active; =PT: Activity equivalent to Paclitaxel; <PT: Activity less than Paclitaxel; settings: PA-1 ovarian cancer cells, 24 to 96 hours, potency over paclitaxel
Protocol: as §1

[3] = system: breast cancer cells (HBL100); experiment: MTT cytotoxicity assay, breast cancer cells; format: cell-based; set-up: key: —: Not active; =PT: Activity equivalent to Paclitaxel; <PT: Activity less than Paclitaxel; settings: 24 to 96 hours, potency over paclitaxel
Protocol: as §1

lung cancer cells (L132) = experiment: MTT cytotoxicity assay, lung cancer cells; format: cell-based; set-up: key: —: Not active; =PT: Activity equivalent to Paclitaxel; <PT: Activity less than Paclitaxel; settings: 24 to 96 hours, potency over paclitaxel
Protocol: as §1

Row | SMILES | toxic dose (mice; administered in the Cremophor vehicle) [mg/kg] | Maximum Tolerated Dose (MTD) (mice; mice, ip administration) [mg/kg] | Potency with respect to paclitaxel, MOLT-4 (leukemia cells (MOLT-4)) | Potency with respect to paclitaxel, SiHa [1] | Potency with respect to paclitaxel, PA-1 [2] | Potency with respect to paclitaxel, HBL100 [3] | Potency with respect to paclitaxel, L132 (lung cancer cells (L132))
1 | CC(=O)O[C@H]1C(=O)[C@@]2(C)[C@H]([C@H](OC(=O)c3ccccc3)[C@]3(O)C[C@H](OC(=O)[C@H](O)[C@@H](NC(=O)c4ccccc4)c4ccccc4)C(C)=C1C3(C)C)[C@]1(OC(C)=O)CO[C@@H]1C[C@@H]2O [paclitaxel, Paclitaxel] | > 30 | 50 |  |  |  |  | 
2 | CC(=O)OC1C(=O)C2(C)C(O)CC3OCC3(OC(C)=O)C2C(OC(=O)c2ccccc2)C2(O)CC(OC(=O)C(OC(=O)C(OC(C)=O)c3ccccc3)C(NC(=O)c3ccccc3)c3ccccc3)C(C)=C1C2(C)C (stereo not drawn) [AV-125S] |  |  | — | — | =PT | — | —
3 | CC(=O)OC1C(=O)C2(C)C(O)CC3OCC3(OC(C)=O)C2C(OC(=O)c2ccccc2)C2(O)CC(OC(=O)C(OC(=O)CC(C)(C)C(=O)O)C(NC(=O)c3ccccc3)c3ccccc3)C(C)=C1C2(C)C (stereo not drawn) [AV-82B] |  |  | — | >25.0 | — | >170 | —
4 | CC(=O)OC(C)C(=O)OC1CC2OCC2(OC(C)=O)C2C(OC(=O)c3ccccc3)C3(O)CC(OC(=O)C(OC(=O)OCC(Cl)(Cl)Cl)C(NC(=O)c4ccccc4)c4ccccc4)C(C)=C(C(OC(C)=O)C(=O)C12C)C3(C)C (stereo not drawn) [AV-126S] |  |  | — | — | =PT | — | —
5 | CC(=O)OC1C(=O)C2(C)C(O)CC3OCC3(OC(C)=O)C2C(OC(=O)c2ccccc2)C2(O)CC(OC(=O)C(OC(=O)c3ccc(F)cc3F)C(NC(=O)c3ccccc3)c3ccccc3)C(C)=C1C2(C)C (stereo not drawn) [AV-103S] |  |  | — | 1.4 | — |  | —
6 | CC(=O)OC1C(=O)C2(C)C(O)CC3OCC3(OC(C)=O)C2C(OC(=O)c2ccccc2)C2(O)CC(OC(=O)C(OC(=O)c3cccc(C(F)(F)F)c3)C(NC(=O)c3ccccc3)c3ccccc3)C(C)=C1C2(C)C (stereo not drawn) [AV-86B] |  |  | — | 2.5 | — | <PT | 
7 | CC(=O)OC1C(=O)C2(C)C(O)CC3OCC3(OC(C)=O)C2C(OC(=O)c2ccccc2)C2(O)CC(OC(=O)C(OC(=O)CSc3ccccc3)C(NC(=O)c3ccccc3)c3ccccc3)C(C)=C1C2(C)C (stereo not drawn) [AV-150S] |  |  | — | — | =PT | — | —
8 | CC(=O)CC(=O)OC(C(=O)OC1CC2(O)C(OC(=O)c3ccccc3)C3C4(OC(C)=O)COC4CC(O)C3(C)C(=O)C(OC(C)=O)C(=C1C)C2(C)C)C(NC(=O)c1ccccc1)c1ccccc1 (stereo not drawn) [AV-147A] |  |  | — | — | =PT | — | —
9 | CC(=O)OC1C(=O)C2(C)C(O)CC3OCC3(OC(C)=O)C2C(OC(=O)c2ccccc2)C2(O)CC(OC(=O)C(OC(=O)CNC(=O)CNC(=O)OC(C)(C)C)C(NC(=O)c3ccccc3)c3ccccc3)C(C)=C1C2(C)C (stereo not drawn) [AV-4S] |  |  | 13.2 | — | 9.5 | 3.3 | 56.3
10 | CC(=O)OC1C(=O)C2(C)C(O)CC3OCC3(OC(C)=O)C2C(OC(=O)c2ccccc2)C2(O)CC(OC(=O)C(OC(=O)c3cccc(F)c3F)C(NC(=O)c3ccccc3)c3ccccc3)C(C)=C1C2(C)C (stereo not drawn) [AV-105S] |  |  | — | 1.4 | — | 3.8 | —
